Data: patent US7244727B2, “Fused bicyclic nitrogen-containing heterocycles” (Japan Tobacco Inc., priority 2002, dated 2007)

Tests used:
[1] = molecular target: T1, human DGAT1 (Homo sapiens, UniProt O75907); experiment: DGAT Scintillation Proximity Assay (SPA) with membranes of insect cells expressing human flagtag DGAT1; format: biochemical; conditions: read-out: hDGAT1 IC50
T1 construct: made in house; host or cells: insect cells (sf9, sf21 or High Five) infected with baculovirus; total cell membranes
T1 sequence (O75907 1-488): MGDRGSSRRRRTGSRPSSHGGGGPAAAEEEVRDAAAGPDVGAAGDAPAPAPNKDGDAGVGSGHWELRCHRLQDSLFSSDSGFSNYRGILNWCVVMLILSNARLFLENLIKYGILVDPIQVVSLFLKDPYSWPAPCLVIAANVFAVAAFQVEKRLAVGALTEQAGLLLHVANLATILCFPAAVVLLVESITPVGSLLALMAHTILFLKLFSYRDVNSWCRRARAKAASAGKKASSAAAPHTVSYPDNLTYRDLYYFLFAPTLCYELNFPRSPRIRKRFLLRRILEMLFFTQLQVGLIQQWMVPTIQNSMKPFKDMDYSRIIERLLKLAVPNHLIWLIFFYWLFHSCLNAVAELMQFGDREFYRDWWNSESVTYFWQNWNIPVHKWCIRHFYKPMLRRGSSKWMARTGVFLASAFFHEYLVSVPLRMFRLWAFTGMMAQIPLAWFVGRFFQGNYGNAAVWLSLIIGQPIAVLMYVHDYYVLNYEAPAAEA
How it was run: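 Membranes (0.2 μg/well) from insect cells expressing human flag-tagged DGAT1 incubated with 10 μM compound and 200 μM dioleoyl glycerol substrate; mercuric chloride as inhibition control. Reaction stopped with WGA SPA beads in mercuric chloride, overnight bead coupling, then scintillation proximity signal read.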

Compound: Cc1nc(N)c2c(n1)OC(C)(C)C(c1ccc([C@H]3CC[C@H](CC(=O)O)CC3)c(N3CCCC3=O)c1)=N2 [Example 6-4]
- melting point: 177 °C (dec.)
- IC50 [1]: > 100 nM

Compound: CCOc1cc(C2=Nc3c(N)nc(C)nc3OC2(C)C)ccc1[C@H]1CC[C@H](CC(=O)O)CC1 [Example 6-8]
- melting point: 224 to 225 °C
- IC50 [1]: 10 to 100 nM

Compound: Cc1nc(N)c2c(n1)OC(C)(C)C(c1ccc([C@H]3CC[C@H](CC(=O)O)CC3)c(F)c1)=N2 [Example 6-9]
- melting point: > 269 °C
- IC50 [1]: < 10 nM

Compound: Cc1nc(N)c2c(n1)OC(C)(C)C(c1ccc([C@H]3CC[C@H](CNC(=O)CO)CC3)c(F)c1)=N2 [Example 6-10]
- melting point: 212 to 214 °C
- IC50 [1]: 10 to 100 nM

Compound: Cc1nc(N)c2c(n1)OC(C)(C)C(c1ccc([C@H]3CC[C@H](Cc4noc(=O)[nH]4)CC3)c(F)c1)=N2 [Example 6-11]
- melting point: > 282 °C
- IC50 [1]: 10 to 100 nM

Compound: Cc1nc(N)c2c(n1)OC(C)(C)C(c1ccc([C@H]3CC[C@H](Cc4cc(O)[nH]n4)CC3)c(Cl)c1)=N2 [Example 6-12]
- melting point: 171 to 173 °C
- IC50 [1]: < 10 nM

Compound: CCNC(=O)NC[C@H]1CC[C@H](c2ccc(C3=Nc4c(N)nc(C)nc4OC3(C)C)cc2Cl)CC1 [Example 6-13]
- melting point: > 250 °C
- IC50 [1]: < 10 nM

Compound: Cc1nc(N)c2c(n1)OC(C)(C)C(c1ccc([C@H]3CC[C@H](CNC(=O)OCC(C)C)CC3)c(Cl)c1)=N2 [Example 6-14]
- melting point: 205 to 209 °C
- IC50 [1]: 10 to 100 nM

Compound: Cc1nc(N)c2c(n1)OC(C)(C)C(c1ccc([C@H]3CC[C@H](CNC(=O)N4CCOCC4)CC3)c(Cl)c1)=N2 [Example 6-15]
- melting point: 225 to 228 °C
- IC50 [1]: 10 to 100 nM

Compound: Cc1nc(N)c2c(n1)OC(C)(C)C(c1ccc([C@H]3CC[C@H](CNC(=O)N(C)C)CC3)c(Cl)c1)=N2 [Example 6-16]
- melting point: > 250 °C
- IC50 [1]: > 100 nM

Compound: Cc1nc(N)c2c(n1)OC(C)(C)C(c1ccc([C@H]3CC[C@H](CN4CCOC4=O)CC3)c(Cl)c1)=N2 [Example 6-17]
- melting point: > 250 °C
- IC50 [1]: > 100 nM

Compound: Cc1nc(N)c2c(n1)OC(C)(C)C(c1ccc([C@H]3CC[C@H](CNC(=O)C(C)(C)O)CC3)c(Cl)c1)=N2 [Example 6-18]
- melting point: > 250 °C
- IC50 [1]: 10 to 100 nM

Compound: Cc1nc(N)c2c(n1)OC(C)(C)C(c1ccc([C@H]3CC[C@H](CN4CCCC(O)C4=O)CC3)c(Cl)c1)=N2 (stereo partly shown) [Example 6-19]
- melting point: 225 to 226 °C
- IC50 [1]: 10 to 100 nM

Compound: CC1(C)Oc2nc(C(F)(F)F)nc(N)c2N=C1c1ccc([C@H]2CC[C@H](CC(=O)O)CC2)c(Cl)c1 [Example 6-20]
- melting point: 247 to 248 °C
- IC50 [1]: < 10 nM

Compound: CC1(C)Oc2nc(C(F)(F)F)nc(N)c2N=C1c1ccc([C@H]2CC[C@H](CN3CCOC3=O)CC2)c(Cl)c1 [Example 6-21]
- melting point: > 250 °C
- IC50 [1]: 10 to 100 nM

Compound: CC1(C)Oc2nc(C(F)(F)F)nc(N)c2N=C1c1ccc([C@H]2CC[C@H](CNC(N)=O)CC2)c(Cl)c1 [Example 6-22]
- melting point: 147 °C (dec.)
- IC50 [1]: 10 to 100 nM

Compound: Cc1nc(N)c2c(n1)OC(C)(C)C(c1ccc([C@H]3CC[C@H](CNC(N)=O)CC3)c(Cl)c1)=N2 [Example 6-23]
- melting point: 160 to 166 °C
- IC50 [1]: 10 to 100 nM

Compound: CC1(C)Oc2nc(C(F)(F)F)nc(N)c2N=C1c1ccc([C@H]2CC[C@H](CNC(=O)CO)CC2)c(Cl)c1 [Example 6-24]
- melting point: 213 to 216 °C
- IC50 [1]: 10 to 100 nM

Compound: CC1(C)Oc2nc(C(F)(F)F)nc(N)c2N=C1c1ccc([C@H]2CC[C@H](Cc3nc(=O)o[nH]3)CC2)c(Cl)c1 [Example 6-25]
- melting point: 236 to 237 °C
- IC50 [1]: 10 to 100 nM

Compound: Cc1nc(N)c2c(n1)OC(C)(C)C(c1ccc([C@H]3CC[C@H](CC(=O)O)CC3)c(Cl)c1)=N2 [Example 6]
- melting point: > 230 °C
- IC50 [1]: < 10 nM
